Values of other authors in US20220241275A1, “TARGETED TREATMENT OF CANCERS WITH DYSREGULATED FIBROBLAST GROWTH FACTOR RECEPTOR SIGNALING” (G1 Therapeutics, Inc., priority 2019, published 2022).
Like-named read-outs stand apart in the source and are kept apart here. Values belong to the compound of their own block, whether it stands above or below them.

Tests used:
FGFR2 = FGFR2 (Homo sapiens, UniProt P21802)
FGFR1 = FGFR1 (Homo sapiens, UniProt P11362)
FGFR3 = FGFR3 (Homo sapiens, UniProt P22607)
FGFR4 = FGFR4 (Homo sapiens, UniProt P22455)
VEGFR2 = VEGFR2 (Homo sapiens, UniProt P35968); conditions: cell-free assays
[1] = system: FGFR1-amplified squamous NSCLC and FGFR3-mutant urothelial cancer; conditions: doses >=100 mg, phase I dose escalation trial

Chain of FGFR4 (P22455 22-802): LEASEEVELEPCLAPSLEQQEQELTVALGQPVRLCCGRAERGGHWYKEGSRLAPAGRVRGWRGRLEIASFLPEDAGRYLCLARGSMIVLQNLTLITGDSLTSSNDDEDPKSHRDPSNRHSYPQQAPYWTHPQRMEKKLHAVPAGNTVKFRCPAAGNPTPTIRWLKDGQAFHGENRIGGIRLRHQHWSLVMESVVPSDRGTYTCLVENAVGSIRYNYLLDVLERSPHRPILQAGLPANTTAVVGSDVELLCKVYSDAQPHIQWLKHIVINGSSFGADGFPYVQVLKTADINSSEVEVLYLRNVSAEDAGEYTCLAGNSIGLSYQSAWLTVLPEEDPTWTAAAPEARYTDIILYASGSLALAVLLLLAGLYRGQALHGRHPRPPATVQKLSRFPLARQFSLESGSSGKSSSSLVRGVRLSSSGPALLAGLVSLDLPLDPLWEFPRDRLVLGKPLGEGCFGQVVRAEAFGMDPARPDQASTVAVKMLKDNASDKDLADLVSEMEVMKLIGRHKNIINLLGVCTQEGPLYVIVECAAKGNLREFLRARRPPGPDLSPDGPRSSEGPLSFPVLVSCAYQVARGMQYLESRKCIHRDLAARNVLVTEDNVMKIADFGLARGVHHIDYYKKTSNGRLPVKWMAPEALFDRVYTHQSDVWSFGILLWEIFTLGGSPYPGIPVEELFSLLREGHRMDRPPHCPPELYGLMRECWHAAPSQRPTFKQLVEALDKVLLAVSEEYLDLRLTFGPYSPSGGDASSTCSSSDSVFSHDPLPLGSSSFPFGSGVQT
Chain of FGFR1 (P11362 22-822): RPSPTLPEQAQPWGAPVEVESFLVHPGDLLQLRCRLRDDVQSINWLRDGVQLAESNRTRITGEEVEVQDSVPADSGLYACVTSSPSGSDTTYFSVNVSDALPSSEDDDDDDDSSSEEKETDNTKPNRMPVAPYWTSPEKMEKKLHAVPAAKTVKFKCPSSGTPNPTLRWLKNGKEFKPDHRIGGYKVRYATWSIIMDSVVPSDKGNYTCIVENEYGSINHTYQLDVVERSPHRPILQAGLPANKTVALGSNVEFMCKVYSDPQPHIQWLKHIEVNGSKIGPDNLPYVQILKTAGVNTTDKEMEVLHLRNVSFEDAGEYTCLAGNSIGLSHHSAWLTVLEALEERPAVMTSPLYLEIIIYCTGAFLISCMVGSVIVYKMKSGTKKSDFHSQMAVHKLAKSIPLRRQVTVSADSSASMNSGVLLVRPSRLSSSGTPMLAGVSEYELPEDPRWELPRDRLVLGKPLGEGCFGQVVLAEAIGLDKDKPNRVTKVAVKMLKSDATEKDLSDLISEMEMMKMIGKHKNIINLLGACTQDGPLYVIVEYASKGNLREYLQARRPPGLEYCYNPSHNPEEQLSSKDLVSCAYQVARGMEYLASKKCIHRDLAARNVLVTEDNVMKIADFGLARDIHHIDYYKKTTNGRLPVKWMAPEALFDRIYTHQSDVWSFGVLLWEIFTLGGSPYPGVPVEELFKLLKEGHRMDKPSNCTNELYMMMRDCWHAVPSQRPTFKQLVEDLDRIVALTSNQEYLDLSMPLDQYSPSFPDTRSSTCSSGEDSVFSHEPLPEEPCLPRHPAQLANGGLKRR
Chain of FGFR3 (P22607 23-806): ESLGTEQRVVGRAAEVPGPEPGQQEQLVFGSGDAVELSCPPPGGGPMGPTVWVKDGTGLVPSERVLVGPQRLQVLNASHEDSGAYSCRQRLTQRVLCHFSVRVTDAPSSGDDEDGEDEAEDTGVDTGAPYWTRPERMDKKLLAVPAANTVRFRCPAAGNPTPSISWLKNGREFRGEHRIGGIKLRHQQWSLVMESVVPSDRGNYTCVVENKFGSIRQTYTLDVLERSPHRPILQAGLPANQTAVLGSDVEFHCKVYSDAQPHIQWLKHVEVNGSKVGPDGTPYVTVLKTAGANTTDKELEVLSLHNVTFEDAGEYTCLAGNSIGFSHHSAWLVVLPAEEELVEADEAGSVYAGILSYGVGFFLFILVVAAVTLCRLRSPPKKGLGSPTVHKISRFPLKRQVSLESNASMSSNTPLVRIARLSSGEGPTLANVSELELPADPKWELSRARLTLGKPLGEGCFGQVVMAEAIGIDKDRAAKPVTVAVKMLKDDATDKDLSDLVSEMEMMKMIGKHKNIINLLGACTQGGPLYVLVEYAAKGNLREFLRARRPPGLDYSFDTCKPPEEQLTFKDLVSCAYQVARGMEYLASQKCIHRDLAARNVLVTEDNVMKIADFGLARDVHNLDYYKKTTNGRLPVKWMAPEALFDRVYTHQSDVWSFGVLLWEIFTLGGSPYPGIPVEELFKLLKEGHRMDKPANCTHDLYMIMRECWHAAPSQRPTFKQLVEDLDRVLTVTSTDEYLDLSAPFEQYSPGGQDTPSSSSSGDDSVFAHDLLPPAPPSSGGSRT
Chain of FGFR2 (P21802 22-821): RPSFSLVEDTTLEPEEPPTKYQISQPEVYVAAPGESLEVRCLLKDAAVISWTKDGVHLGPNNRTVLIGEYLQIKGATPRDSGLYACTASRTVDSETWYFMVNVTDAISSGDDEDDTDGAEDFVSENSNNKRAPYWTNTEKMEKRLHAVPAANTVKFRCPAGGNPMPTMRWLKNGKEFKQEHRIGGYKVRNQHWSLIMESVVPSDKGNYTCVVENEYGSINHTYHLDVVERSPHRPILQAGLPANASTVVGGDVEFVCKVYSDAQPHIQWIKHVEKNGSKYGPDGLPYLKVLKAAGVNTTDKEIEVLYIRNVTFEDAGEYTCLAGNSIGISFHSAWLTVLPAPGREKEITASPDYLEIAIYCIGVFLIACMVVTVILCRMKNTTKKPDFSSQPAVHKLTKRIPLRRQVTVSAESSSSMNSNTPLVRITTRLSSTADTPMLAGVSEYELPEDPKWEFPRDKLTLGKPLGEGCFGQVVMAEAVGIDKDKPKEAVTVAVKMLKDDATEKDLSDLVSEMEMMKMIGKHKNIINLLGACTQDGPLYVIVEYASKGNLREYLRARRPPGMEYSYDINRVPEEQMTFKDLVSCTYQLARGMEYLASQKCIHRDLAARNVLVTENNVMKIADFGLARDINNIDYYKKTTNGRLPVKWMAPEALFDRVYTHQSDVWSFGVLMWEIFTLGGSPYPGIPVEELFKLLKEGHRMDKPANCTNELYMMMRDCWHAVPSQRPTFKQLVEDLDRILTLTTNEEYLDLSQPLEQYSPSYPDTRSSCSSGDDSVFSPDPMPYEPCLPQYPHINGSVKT
Chain of VEGFR2 (P35968 20-1356, species assumed): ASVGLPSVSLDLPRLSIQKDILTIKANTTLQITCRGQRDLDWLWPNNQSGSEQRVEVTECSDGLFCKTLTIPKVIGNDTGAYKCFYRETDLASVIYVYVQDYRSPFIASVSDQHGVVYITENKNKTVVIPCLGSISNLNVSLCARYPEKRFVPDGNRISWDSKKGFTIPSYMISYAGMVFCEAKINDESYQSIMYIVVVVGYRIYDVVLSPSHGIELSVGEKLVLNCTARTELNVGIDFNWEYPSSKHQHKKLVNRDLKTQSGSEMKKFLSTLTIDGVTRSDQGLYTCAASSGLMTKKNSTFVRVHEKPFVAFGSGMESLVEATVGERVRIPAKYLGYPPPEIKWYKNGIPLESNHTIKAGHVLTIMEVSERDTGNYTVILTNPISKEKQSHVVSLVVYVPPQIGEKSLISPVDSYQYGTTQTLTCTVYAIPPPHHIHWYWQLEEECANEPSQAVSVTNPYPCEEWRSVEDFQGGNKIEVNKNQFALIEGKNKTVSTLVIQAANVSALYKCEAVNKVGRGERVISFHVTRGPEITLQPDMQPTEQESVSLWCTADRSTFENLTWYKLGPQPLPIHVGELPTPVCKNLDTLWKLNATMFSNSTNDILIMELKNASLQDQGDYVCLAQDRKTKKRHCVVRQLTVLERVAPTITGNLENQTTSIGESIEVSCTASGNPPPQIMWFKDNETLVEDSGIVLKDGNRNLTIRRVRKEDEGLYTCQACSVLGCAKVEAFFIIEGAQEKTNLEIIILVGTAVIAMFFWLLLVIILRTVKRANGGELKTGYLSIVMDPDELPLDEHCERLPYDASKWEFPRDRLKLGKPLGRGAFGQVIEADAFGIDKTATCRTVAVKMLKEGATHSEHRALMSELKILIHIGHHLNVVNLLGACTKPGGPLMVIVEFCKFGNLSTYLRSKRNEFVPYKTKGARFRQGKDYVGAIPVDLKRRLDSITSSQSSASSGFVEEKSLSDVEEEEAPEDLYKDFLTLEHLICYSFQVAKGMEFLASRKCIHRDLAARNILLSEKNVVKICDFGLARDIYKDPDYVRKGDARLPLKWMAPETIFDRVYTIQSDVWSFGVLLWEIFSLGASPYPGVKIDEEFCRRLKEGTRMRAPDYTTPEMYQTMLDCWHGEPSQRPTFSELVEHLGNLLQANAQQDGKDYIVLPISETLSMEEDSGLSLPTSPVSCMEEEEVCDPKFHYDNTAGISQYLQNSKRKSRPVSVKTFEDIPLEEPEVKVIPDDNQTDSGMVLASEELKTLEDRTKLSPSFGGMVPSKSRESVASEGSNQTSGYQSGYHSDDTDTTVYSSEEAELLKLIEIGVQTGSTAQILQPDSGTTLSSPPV

IC50 (FGFR2): 4.3 nM | IC50 (FGFR1): 3.09 nM | IC50 (FGFR3): 27 nM | IC50 (FGFR4; read-out: IC50 for FGFR4): 45.3 nM
SMILES: C=CC(=O)Nc1ccc(CN2C(=O)N(c3cc(OC)cc(OC)c3)Cc3cnc(Nc4ccc(N5CCN(C)CC5)cc4)nc32)cc1 [FIIN-2]

IC50 (VEGFR2): 100 to 200 nM
SMILES: CCN(CC)CCCCNc1ncc2cc(-c3cc(OC)cc(OC)c3)c(NC(=O)NC(C)(C)C)nc2n1 [PD173074]

IC50 (FGFR4; read-out: IC50, FGFR4): 320 nM
SMILES: CNC(=O)c1cccc2cc(Oc3ccnc(NC(=O)c4ccc(N5CCN(CCO)CC5)cc4)c3)ccc12 [SOMCL-085]

SMILES: CCN1CCN(c2ccc(Nc3cc(N(C)C(=O)Nc4c(Cl)c(OC)cc(OC)c4Cl)ncn3)cc2)CC1 [infigratinib]
confirmed partial responses [1]: six
